“And” between values parts separate entries of the source, which are not always exact repeats. Identical values can stand only once.
Test: Clinical chemistry, day 15
Format: in vivo, Sprague-Dawley rats
From the text: On day 15, urine was collected on all surviving animals for urinalysis. The animals were euthanized and bled via cardiac puncture. Blood was collected for hematology, clinical chemistry, and coagulation analysis. Tissues were collected, weighed, and stored in 10% neutral-buffered formalin for possible future analysis.

[1] = anatabine 0.1 mg/kg, female rats, individual animals
[2] = anatabine 0.1 mg/kg, male rats, individual animals
[3] = anatabine 0.75 mg/kg, female rats, individual animals

C1=CCC(c2cccnc2)NC1 (racemic) [Anatabine, 1,2,3,6-tetrahydro-[2,3′]bipyridinyl]
CHLORIDE (Mean, F, 0.1 mg/kg): 100.20 mEq/L | CHOLESTEROL (Mean, F, 0.1 mg/kg): 76.40 mg/dL | CREATININE (Mean, F, 0.1 mg/kg): 0.44 mg/dL | GLUCOSE (Mean, F, 0.1 mg/kg): 207.60 mg/dL | PHOSPHORUS (Mean, F, 0.1 mg/kg): 8.08 mg/dL | POTASSIUM (Mean, F, 0.1 mg/kg): 5.82 mEq/L | SODIUM (Mean, F, 0.1 mg/kg): 146.80 mEq/L | CHLORIDE (Mean, F, 0.75 mg/kg): 98.00 mEq/L | CHOLESTEROL (Mean, F, 0.75 mg/kg): 69.80 mg/dL | CREATININE (Mean, F, 0.75 mg/kg): 0.44 mg/dL | GLUCOSE (Mean, F, 0.75 mg/kg): 220.80 mg/dL | PHOSPHORUS (Mean, F, 0.75 mg/kg): 8.64 mg/dL | POTASSIUM (Mean, F, 0.75 mg/kg): 5.88 mEq/L | SODIUM (Mean, F, 0.75 mg/kg): 145.00 mEq/L | CHLORIDE (Mean, M, 0.1 mg/kg): 98.00 mEq/L | CHOLESTEROL (Mean, M, 0.1 mg/kg): 67.20 mg/dL | CREATININE (Mean, M, 0.1 mg/kg): 0.36 mg/dL | PHOSPHORUS (Mean, M, 0.1 mg/kg): 10.82 mg/dL | POTASSIUM (Mean, M, 0.1 mg/kg): 6.40 mEq/L | SODIUM (Mean, M, 0.1 mg/kg): 146.20 mEq/L | CHLORIDE (Mean, M, 0.75 mg/kg): 98.60 mEq/L | CHOLESTEROL (Mean, M, 0.75 mg/kg): 62.80 mg/dL | CREATININE (Mean, M, 0.75 mg/kg): 0.36 mg/dL | GLUCOSE (Mean, M, 0.75 mg/kg): 202.00 mg/dL | PHOSPHORUS (Mean, M, 0.75 mg/kg): 10.92 mg/dL | POTASSIUM (Mean, M, 0.75 mg/kg): 6.12 mEq/L | SODIUM (Mean, M, 0.75 mg/kg): 147.80 mEq/L | ALBUMIN [1]: 3.6 g/dL (3×) and 3.5 g/dL and 3.8 g/dL | ALK PHOSPHATASE [1]: 261 IU/L and 140 IU/L and 209 IU/L and 412 IU/L and 220 IU/L | ALT [1]: 57 IU/L and 43 IU/L and 47 IU/L and 62 IU/L and 39 IU/L | AST [1]: 78 IU/L and 69 IU/L and 70 IU/L and 86 IU/L and 82 IU/L | BUN [1]: 21 mg/dL (2×) and 19 mg/dL (3×) | CHLORIDE [1]: 99 mEq/L and 102 mEq/L (2×) and 97 mEq/L and 101 mEq/L | CHOLESTEROL [1]: 90 mg/dL and 74 mg/dL and 65 mg/dL and 66 mg/dL and 87 mg/dL | CREATININE [1]: 0.4 mg/dL (3×) and 0.5 mg/dL (2×) | DIR BILIRUBIN [1]: 0 mg/dL | GLOBULIN [1]: 3.1 g/dL (3×) and 3 g/dL | GLUCOSE [1]: 224 mg/dL and 170 mg/dL and 227 mg/dL and 220 mg/dL and 197 mg/dL | PHOSPHORUS [1]: 8.5 mg/dL (2×) and 8.2 mg/dL and 7.4 mg/dL and 7.8 mg/dL | POTASSIUM [1]: 5.4 mEq/L and 6.3 mEq/L and 5.2 mEq/L and 5.5 mEq/L and 6.7 mEq/L | SODIUM [1]: 147 mEq/L and 145 mEq/L | TOT BILIRUBIN [1]: 0 mg/dL | TOT PROTEIN [1]: 6.7 g/dL (2×) and 6.3 g/dL and 6.9 g/dL and 6.6 g/dL | ALBUMIN [2]: 3.4 g/dL (2×) and 3.2 g/dL and 3.1 g/dL (2×) | ALK PHOSPHATASE [2]: 470 IU/L and 227 IU/L and 364 IU/L and 358 IU/L and 618 IU/L | ALT [2]: 92 IU/L and 65 IU/L and 74 IU/L and 44 IU/L and 78 IU/L | AST [2]: 97 IU/L and 99 IU/L and 93 IU/L and 85 IU/L and 106 IU/L | BUN [2]: 18 mg/dL (2×) and 21 mg/dL and 14 mg/dL and 19 mg/dL | CHLORIDE [2]: 98 mEq/L and 97 mEq/L (2×) and 99 mEq/L (2×) | CHOLESTEROL [2]: 65 mg/dL and 64 mg/dL and 75 mg/dL and 56 mg/dL and 76 mg/dL | CREATININE [2]: 0.4 mg/dL (3×) and 0.3 mg/dL (2×) | DIR BILIRUBIN [2]: 0 mg/dL | GLOBULIN [2]: 2.9 g/dL (2×) and 2.6 g/dL and 3.1 g/dL | GLUCOSE [2]: 258 mg/dL and 214 mg/dL and 194 mg/dL and 210 mg/dL | PHOSPHORUS [2]: 10.3 mg/dL (2×) and 10.8 mg/dL | POTASSIUM [2]: 5.9 mEq/L and 6.5 mEq/L and 6.6 mEq/L and 6.9 mEq/L and 6.1 mEq/L | SODIUM [2]: 144 mEq/L and 147 mEq/L | TOT BILIRUBIN [2]: 0 mg/dL | TOT PROTEIN [2]: 6.3 g/dL (2×) and 5.8 g/dL and 5.9 g/dL and 6.2 g/dL | ALBUMIN [3]: 3.5 g/dL (2×) and 3.6 g/dL (2×) and 3.4 g/dL | ALK PHOSPHATASE [3]: 123 IU/L and 142 IU/L and 235 IU/L and 130 IU/L and 160 IU/L | ALT [3]: 63 IU/L and 49 IU/L (2×) and 55 IU/L and 57 IU/L | AST [3]: 95 IU/L and 69 IU/L and 76 IU/L and 54 IU/L and 72 IU/L
